Assay results: US20230270828A1, “COMPOSITION FOR USE IN THE TREATMENT OF VIRAL INFECTIONS” (BICT S.R.L., priority 2020, published 2023)
Where two headings read alike, the source gives them in different places. Marks after values point to notes of the source that are not given here.

Legend:
[1] = system: Vero cells (Monkey Kidney Epithelial Cells)
SARS-CoV-2 [2] = assay: Virucide activity against SARS-CoV-2, plaque assay; type: cell-based; conditions: scheme B+C; for SARS-CoV-2 infectivity reduced by: plaque assay
SARS-CoV-2 [3] = type: cell-based
[4] = system: canine herpes virus, CHV-1; assay: Antiviral checkerboard assay, Cf2Th cells infected with canine herpes virus CHV-1; type: cell-based
Procedure: This antiviral activity was evaluated using Cf2Th cells (canine thymocytes) infected with canine herpes virus, CHV-1.
Briefly, the Cf2Th cells were plated at a concentration of 5×10^5 cells/mL in 96-well multiwells (100 μL/well) and incubated at 37° C. in an atmosphere with 5% CO2.
Upon reaching about 90% confluence (48 h incubation), the medium was aspirated from each well, and replaced with 100 μL fresh medium containing a final virus concentration equal to 1×10^3 UFP/mL, and different concentrations of Lactoferricin and Grape Seed extract.
In particular, the different combinations between the two compounds had been previously prepared by crossing serial dilutions of the same, according to the protocol defined “broth microdilution checkerboard method”.
The cells were left in co-incubation with the virus and the compounds under examination for 48 h (37° C. -5% CO2).
At the end of the incubation, the wells characterized by a cell lysis given by the viral infection were discriminated from those in which the virus was inhibited by the compounds and therefore with viable cells. This evaluation was carried out both by direct observation under the microscope and by staining with methylene blue. […]
To determine the actual presence of synergy between the two compounds, the ratio below was calculated, defined as the FIC Index (FIC I). […]

## polylysine [PREP 3]
[1]
  CC10: >0.40 mg/mL
SARS-CoV-2 [2]; 0.05 mg/ml
  SARS-CoV-2 infectivity reduced by: 20%
  percentage of virus replication compared to untreated infected cells: 80%
SARS-CoV-2 [2]; 0.1 mg/ml
  SARS-CoV-2 infectivity reduced by: 30.2%
SARS-CoV-2 [2]; 0.10 mg/ml
  percentage of virus replication compared to untreated infected cells: 69.8%
SARS-CoV-2 [2]; 0.20 mg/ml
  SARS-CoV-2 infectivity reduced by: 48.8%
  percentage of virus replication compared to untreated infected cells: 51.2%
SARS-CoV-2 [2]; 0.40 mg/ml
  SARS-CoV-2 infectivity reduced by: 96.3%
  percentage of virus replication compared to untreated infected cells: 3.7%
SARS-CoV-2 [3]
  antiviral effect: No antiviral effect
  virus inhibition (antiviral and virucide activities): more than 90%
  ΔCt, dose-dependent antiviral effect: −1.80 to −5.22
SARS-CoV-2 [3]; addition of a third dose (scheme B+C+D)
  antiviral effect: slight effect
SARS-CoV-2 [3]; scheme B+C
  decrease in the viral replication: more than 1 log
  maximum inhibition of the virus replication: 93%
SARS-CoV-2 [3]; schemes A, B and C
  antiviral effect: no effect

## lactoferrin/lactoferricin [PREP 1]
[1]; Vero cells, 72 h, MTT
  CC10: >4.06* mg/ml
  CC50: >4.06* mg/ml
[1]; Vero cells, based on CC50/CC10 data
  maximum nontoxic concentration (assumed): 4.06 mg/mL
SARS-CoV-2 [3]; 1.02 mg/ml, scheme A (preincubation of virus with compound)
  Mean ΔCt: 0.16
SARS-CoV-2 [3]; 1.02 mg/ml, scheme B+C (during and after inoculum)
  Mean ΔCt: −0.48
SARS-CoV-2 [3]; 1.02 mg/ml, scheme B+C+D (during, after inoculum and repeated)
  Mean ΔCt: −0.59
SARS-CoV-2 [3]; 2.03 mg/ml, scheme A (preincubation of virus with compound)
  Mean ΔCt: 0.36
SARS-CoV-2 [3]; 2.03 mg/ml, scheme B+C (during and after inoculum)
  Mean ΔCt: −0.50
SARS-CoV-2 [3]; 2.03 mg/ml, scheme B+C+D (during, after inoculum and repeated)
  Mean ΔCt: −1.11
SARS-CoV-2 [3]; 4.06 mg/ml, scheme A (preincubation of virus with compound)
  Mean ΔCt: 0.52
SARS-CoV-2 [3]; 4.06 mg/ml, scheme B+C (during and after inoculum)
  Mean ΔCt: −2.90
SARS-CoV-2 [3]; 4.06 mg/ml, scheme B+C+D (during, after inoculum and repeated)
  Mean ΔCt: −3.64
SARS-CoV-2 [3]; high dose, added after the inoculum, one or twice
  mean ΔCt over schemes C, B+C and B+C+D: −3.3

## CCN(CC)CCCC(C)Nc1ccnc2cc(Cl)ccc12 (centres unmarked) [Chloroquine, chloroquine, reference compound]
[1]; Vero cells, 72 h, MTT
  CC10: 20.93 ± 4.39 µM

## Lactoferricin
[4]; CHV-1, 48 h co-incubation
  Minimum Antiviral Concentration Compound alone: 3.125%
[4]; in association with Grape Seed Extract, CHV-1, 48 h
  Minimum Antiviral Concentration Compound in association: 0.781%
